PubChem BioAssay AID1620 (Sanford-Burnham Center for Chemical Genomics, 2009)
Activity calls are given as the source filed them.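 Rule for the calls: active = toxicity graded low, moderate or high, meaning less radioactive sulfur built into protein than in solvent-only controls; inactive = the rest.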

Tested on: HeLa, 35S-Met/Cys protein incorporation toxicity, 3 h
Assay: HeLa cytotoxicity by protein synthesis, late-stage follow-up, cytotoxicity control for PMI inhibitor project, HeLa cells (AID 1620)

SMILES | outcome
FC(F)(F)c1ccc(N=c2ssnc2Cl)cc1 | active; moderate toxicity
CN(C)S(=O)(=O)c1cccc(-n2sc3ccccc3c2=O)c1 | active; moderate toxicity
Cc1ccc(C)c(-n2sc3ccccc3c2=O)c1 | active; moderate toxicity
Cc1ccc(C)n1-c1nc(=S)[nH][nH]1 | inactive; no toxicity
COc1ccc(-c2nc(=S)[nH][nH]2)cc1OC | inactive; no toxicity
Clc1nssc1=Nc1ccc(Br)cc1 | active; high toxicity
Clc1nss/c1=N\c1nc2ccccc2s1 | active; highly toxic
COc1cc([N+](=O)[O-])ccc1N=c1ssnc1Cl | active; moderate toxicity
COc1ccc2c(=O)n(C3CCCC3)sc2c1 | inactive; no toxicity
O=c1c2ccccc2sn1-c1cc(S(=O)(=O)N2CCOCC2)ccc1N1CCCC1 | active; moderate toxicity
O=C(O)CCn1cc(C=C2C(=O)NC(=S)NC2=O)c(-c2cccc(Br)c2)n1 | inactive; no toxicity
S=c1nc(-c2cccc(Br)c2)[nH][nH]1 | inactive; no toxicity
Clc1ccc(N=c2ssnc2Cl)cc1Cl | active; highly toxic
Cc1cccc(-n2sc3cc(F)ccc3c2=O)c1C | active; moderate toxicity
CCOc1ccc(-c2nc(=S)[nH][nH]2)cc1 | inactive; no toxicity
O=C(O)c1ccccc1NS(=O)(=O)c1cccc(-n2sc3ccccc3c2=O)c1 | active; high toxicity
Cc1ccc(N=c2ssnc2Cl)cc1 | inactive; no toxicity
O=c1c2ccccc2sn1-c1ccc2ccccc2c1 | active; high toxicity
COc1ccc(-c2nc(=S)[nH][nH]2)cc1 | inactive; no toxicity
O=c1c2cc(F)ccc2sn1-c1ccccc1 | active; moderate toxicity
CCSc1n[nH]c(=S)s1 | inactive; no toxicity

SMILES | outcome
O=c1c2ccccc2sn1-c1cccc(C(F)(F)F)c1 | active; highly toxic
Clc1nss/c1=N\c1nccs1 | inactive; no toxicity
Cc1ccc(C=Nn2c(-c3ccncc3)n[nH]c2=S)cc1 | inactive; no toxicity
O=c1c2ccccc2sn1-c1cc(S(=O)(=O)N2CCOCC2)ccc1N1CCOCC1 | active; moderate toxicity
Cc1cccc(N=c2ssnc2Cl)c1 | active; moderate toxicity
CCc1cc(CC)c(N=c2ssnc2Cl)c(CC)c1 | active; highly toxic
COc1cccc(-n2sc3ccccc3c2=O)c1 | active; low toxicity
Cc1cccc(-n2sc3ccccc3c2=O)c1 | active; moderate toxicity
CN(C)c1cccc(N=c2ssnc2Cl)c1 | active; highly toxic
O=[N+]([O-])c1ccc(N=c2ssnc2Cl)c2ccccc12 | active; low toxicity
Cc1ccc(C)c(-n2sc3ccc(F)cc3c2=O)c1 | active; moderate toxicity
Cc1ccc(C)c(-n2[nH]c3ccccc3c2=O)c1 | inactive; no toxicity
Clc1ccc(Nc2ccccc2N=c2ssnc2Cl)cc1 | active; highly toxic
COc1ccc(OC)c(N=c2ssnc2Cl)c1 | inactive; no toxicity
O=c1c2ccccc2sn1-c1cccc(S(=O)(=O)Nc2ccc(Cl)cc2)c1 | active; moderate toxicity
CN(C)c1cccc(-n2sc3ccccc3c2=O)c1 | inactive; no toxicity
Cc1[nH]n(-c2ccccc2)c(=S)c1C=Nc1cccc([N+](=O)[O-])c1 | inactive; no toxicity
Cc1ccc(-n2sc3ccccc3c2=O)cc1S(=O)(=O)N1CCCCC1 | active; moderate toxicity
Cc1ccc(N=c2ssnc2Cl)nc1 | active; highly toxic
O=C(NCc1ccccc1)c1cccc(-n2sc3ccccc3c2=O)c1 | inactive; no toxicity
S=c1nc(-c2ccccc2Br)[nH][nH]1 | inactive; no toxicity

SMILES | outcome
S=c1nc(-c2cccc(Cl)c2)[nH][nH]1 | inactive; no toxicity
O=c1c2ccccc2sn1-c1ccc(Cl)cc1 | active; highly toxic
N#Cc1ccc(N=c2ssnc2Cl)cc1 | inactive; no toxicity
Oc1ccc(N=c2ssnc2Cl)cc1 | inactive; no toxicity
O=c1c2ccc(O)cc2sn1C1CCCC1 | inactive; no toxicity
COc1cc(-c2nc(=S)[nH][nH]2)cc(OC)c1OC | inactive; no toxicity
O=c1c2ccccc2sn1-c1cccc(Cl)c1 | active; highly toxic
Cc1ccc(C)c(-n2sc3cc(F)ccc3c2=O)c1 | active; high toxicity
Cc1ccc(N=c2ssnc2Cl)cc1[N+](=O)[O-] | active; moderate toxicity
Nc1ccccc1N=c1ssnc1Cl | inactive; no toxicity
O=c1c2ccccc2sn1-c1ccc(F)cc1 | active; moderate toxicity
Cc1ccc(N=c2ssnc2Cl)cc1C | active; moderate toxicity
O=c1c2ccccc2sn1-c1ccccc1 | inactive; no toxicity
O=c1c2c([N+](=O)[O-])cc([N+](=O)[O-])cc2sn1-c1ccc(F)c(Cl)c1 | inactive; no toxicity
COc1cc(N=c2ssnc2Cl)c(OC)cc1Cl | active; low toxicity
O=c1c2ccccc2sn1-c1ccc(Cl)c(S(=O)(=O)N2CCOCC2)c1 | active; moderate toxicity
N#CC1=C2SCN(Cc3ccccc3)CN2C(=O)CC1c1ccc2c(c1)OCO2 (stereo not drawn) | inactive; no toxicity
O=c1c2c([N+](=O)[O-])cc([N+](=O)[O-])cc2sn1-c1ccccc1F | active; low toxicity
Clc1nss/c1=N\c1nncs1 | active; moderate toxicity
COc1cc(N=c2ssnc2Cl)cc(OC)c1OC | inactive; no toxicity
Cc1c(Cl)cccc1-n1sc2cc([N+](=O)[O-])cc(OCC(F)(F)F)c2c1=O | active; low toxicity

SMILES | outcome
O=C(O)c1cccc(-n2sc3ccccc3c2=O)c1 | active; moderate toxicity
Cc1ccnc(-n2sc3ccccc3c2=O)n1 | inactive; no toxicity
O=C1c2ccccc2SC1c1ccccc1 (stereo not drawn) | active; low toxicity
O=c1c2ccc(F)cc2sn1-c1cc(Cl)ccc1Cl | active; highly toxic
CN(C)c1ccc(N=c2ssnc2Cl)cc1 | active; moderate toxicity
Cc1ccc(C)c(N2Cc3ccccc3C2=O)c1 | active; low toxicity
OCc1ccccc1N=c1ssnc1Cl | inactive; no toxicity
COc1cc(N=c2ssnc2Cl)cc(OC)c1 | inactive; no toxicity
Clc1cccc(N=c2ssnc2Cl)c1 | active; low toxicity
COc1ccc(N=c2ssnc2Cl)cc1OC | active; highly toxic
COC(=O)c1cccc(-n2sc3ccccc3c2=O)c1 | active; moderate toxicity
Cc1ccc(N=c2ssnc2Cl)c([N+](=O)[O-])c1 | active; low toxicity
O=c1c2ccccc2sn1-c1cccc(I)c1 | active; highly toxic
Clc1ccc(N=c2ssnc2Cl)cc1 | active; highly toxic
Clc1nssc1=Nc1ccccc1 | inactive; no toxicity
O=c1c2ccccc2sn1-c1nccs1 | inactive; no toxicity
O=c1c2c([N+](=O)[O-])cc([N+](=O)[O-])cc2sn1-c1ccc(F)cc1 | active; low toxicity
CC(C)(C)c1ccc(N=c2ssnc2Cl)cc1 | active; moderate toxicity
O=[N+]([O-])c1ccc(N=c2ssnc2Cl)c([N+](=O)[O-])c1 | inactive; no toxicity
S=c1nc(C2COc3ccccc3O2)[nH][nH]1 (stereo not drawn) | inactive; no toxicity
